{
  "source": "patent US20090137496A1",
  "about": "“Use of Active Ingredients Containing Hydroxystilbene for Preventing and/or Treating Osteoporosis” (MATSUSHITA ELECTRIC INSUTRIAL CO., LTD., priority 2005, published 2009)",
  "key": {"[1]": {"assay": "Accumulation of ERr 731 ingredients in dog plasma, 100/300/1000 mg/kg/day, day 1", "type": "in vivo, dog (beagle)", "settings": "male and female dogs, ERr 731 100, 300, 1000 mg/kg/day, day 1", "method": "(§1) These plasma samples were processed as follows: 500 μl of plasma were mixed with 25 μl of an internal standard working solution (2.5 ng/μl rhaponticin or rhapontigenin in methanol) and then mixed with 500 μl of isotonic NaCl solution and 2.5 ml of diethyl ether/butanol (9/1; v/v). After shaking and centrifugation (10 minutes at 4600 rpm), about 2 ml of the supernatant were removed and dried under a stream of nitrogen (at 60° C.). The pellet was taken up in 50 μl of methanol. Addition of 200 μl of distilled water was followed by renewed mixing, and 200 μl were pipetted into autosampler tubes (light-protected). 30 μl of the samples were injected for analysis into an LC-MS/MS system (PE Sciex API 3000). Chromatographic separation of the analytes took place on a Phenomenex Polymer X column with a gradient of an ammonium buffer solution and an acetonitrile/methanol mixture as mobile phase.\nOn day 1, 5 ml of blood were taken from the animals after 0, 0.5, 1, 2, 4, 8 and 24 hours in each case, and plasma was obtained. The analysis as described in section a) was carried out thereon in order to detect rhaponticin, deoxyrhaponticin, rhapontigenin, deoxyrhapontigenin, resveratrol and piceatannol in blood. The results of the test are depicted in FIG. 2a."}, "[2]": {"assay": "Pharmacokinetics of ERr 731 ingredients in the blood of a volunteer after oral intake (plasma LC-MS/MS)", "type": "in vivo, human", "settings": "for detection in the blood: oral 10 tablets = 40 mg ERr 731, plasma", "method": "Subsequently, 10 ml of blood was taken at various times (as indicated in FIG. 1) and the plasma was obtained by centrifugation.\nas §1"}, "ERα": {"molecular_target": "T1, ERα (Homo sapiens, UniProt P03372)", "T1 construct": "host or cells: U2OS-ERα (human osteosarcoma), stably transfected, pSG5 vector", "T1 sequence (P03372 1-595)": "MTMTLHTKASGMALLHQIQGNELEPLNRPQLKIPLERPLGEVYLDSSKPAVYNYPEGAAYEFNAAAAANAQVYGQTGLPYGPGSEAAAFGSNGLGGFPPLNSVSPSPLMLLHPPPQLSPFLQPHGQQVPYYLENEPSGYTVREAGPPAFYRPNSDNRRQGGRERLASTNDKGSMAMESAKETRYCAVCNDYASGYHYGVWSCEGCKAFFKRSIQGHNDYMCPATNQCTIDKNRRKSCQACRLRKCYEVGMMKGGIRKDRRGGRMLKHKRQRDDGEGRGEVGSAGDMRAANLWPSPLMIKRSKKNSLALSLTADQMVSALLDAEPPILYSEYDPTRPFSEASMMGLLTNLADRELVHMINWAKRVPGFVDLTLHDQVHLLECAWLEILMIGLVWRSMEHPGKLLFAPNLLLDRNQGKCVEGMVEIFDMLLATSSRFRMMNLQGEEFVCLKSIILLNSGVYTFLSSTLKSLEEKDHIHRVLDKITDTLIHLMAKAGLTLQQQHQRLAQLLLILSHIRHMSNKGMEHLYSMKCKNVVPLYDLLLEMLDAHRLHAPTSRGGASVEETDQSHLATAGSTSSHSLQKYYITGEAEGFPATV", "assay": "ERα activation, luciferase reporter gene in U2OS-ERα osteosarcoma cells", "type": "cell-based", "settings": "U2OS stably transfected with ERα, 24 h", "method": "U2OS cells are human, epithelially organized osteosarcoma cells originally isolated in 1964 from the tibia of a child by J. Ponten and E. Saksela (Ponten and Saksela 1967: Two established in vitro cell lines from human mesenchymal tumours, Int. J. Cancer 2: 434-447).\nA suitable medium for the cells is DMEM/F12 (Dulbecco's modified Eagle's Medium), to which 10% fetal calf serum was added for culturing the cells, and 5% fetal calf serum was added for the actual experiment. The latter was previously made steroid-free (DCC medium) using dextran-coated activated carbon (dextran-coated charcoal; DCC). Incubation took place at 37° C. with 5% v/v CO2. In order to ensure comparability between the individual experiments, the passages of the cells used for the experiments never exceeded 20 after thawing from liquid nitrogen.\nBesides native U2OS cells, use was made of U2OS-ERα cells (Schering A G, Berlin) which were stably transfected with ERα (pSG5 vector, Stratagene) and merely required transfection with the reporter gene (ERE)2-tk-Luc (pGL3 basic vector, Promega). […]\nAfter the cells were treated with the test or control substances for 24 h it was possible to measure the luciferase activity as reporter gene using a kit from Promega, as stated by the manufacturer. The protein content was determined using the BCA® kit (Sigma)."}, "ERβ": {"molecular_target": "T2, ERβ (Homo sapiens, UniProt Q92731)", "T2 construct": "host or cells: U2OS (human osteosarcoma)", "T2 sequence (Q92731 whole entry)": "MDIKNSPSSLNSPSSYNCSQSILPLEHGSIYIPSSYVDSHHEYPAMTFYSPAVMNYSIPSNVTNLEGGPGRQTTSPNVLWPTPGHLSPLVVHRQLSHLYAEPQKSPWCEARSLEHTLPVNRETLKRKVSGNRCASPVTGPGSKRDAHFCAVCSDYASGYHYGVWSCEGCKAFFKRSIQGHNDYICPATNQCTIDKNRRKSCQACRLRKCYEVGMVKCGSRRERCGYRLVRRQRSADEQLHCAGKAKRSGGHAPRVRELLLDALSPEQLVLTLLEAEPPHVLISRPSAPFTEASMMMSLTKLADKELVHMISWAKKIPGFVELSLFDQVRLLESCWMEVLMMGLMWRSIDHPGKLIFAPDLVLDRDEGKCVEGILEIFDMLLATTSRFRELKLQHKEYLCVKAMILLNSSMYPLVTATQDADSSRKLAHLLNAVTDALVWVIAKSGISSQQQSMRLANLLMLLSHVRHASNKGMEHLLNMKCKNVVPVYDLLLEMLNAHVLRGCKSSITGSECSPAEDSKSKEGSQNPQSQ", "assay": "ERβ activation in the osteosarcoma cell line U2OS", "type": "cell-based"}, "Solubility statements": {"assay": "Solubility statements", "type": "physicochemical", "source_text": "Use is made of this for its isolation. Since, besides other organic acids, the root in particular has a high content of oxalic acid (⅔ in water-soluble and ⅓ in bound form), this must be neutralized during the isolation in order to prevent the pH drifting into the acidic range and thus to inhibit premature precipitation of the rhaponticin. This is achieved by using calcium oxide. The latter is employed as quicklime solution with a pH of 12.4-12.6.\nHydroxypropylmethylcellulose (hypromellose USP) or another gel former is allowed to swell with 2-10% by weight in purified water. […] The amount of glycerol may be up to 50% of the weight of the gel. […] If necessary, preservatives (e.g. sorbic acid and its salts) can be added to the gel. Adjustment of the pH is also possible. As alternative to glycerol it is also possible to use 30-86% by volume ethanol."}, "[3]": {"assay": "Dissolving tests with ERr 731 in ethanol and glycerol", "type": "physicochemical"}, "[4]": {"settings": "Test A: 200 mg of dry extract in 50 ml of glycerol R"}, "[5]": {"settings": "Test B: 200 mg of dry extract in 50 ml of ethanol 30% R"}, "[6]": {"settings": "Test C: 200 mg of dry extract in 50 ml of ethanol 50% R"}, "[7]": {"settings": "Test D: 200 mg of dry extract in 50 ml of ethanol 86% R"}},
  "note": "“Also recorded” adds a separate entry of the source.",
  "data": [
    {"compound": "COc1ccc(/C=C/c2cc(O)cc(O)c2)cc1O", "note": "[rhapontigenin, 3,3′,5-Trihydroxy-4′-methoxystilbene]", "values": [
      {"measurement": "detection / accumulation (AUC 0-24 h) in dog plasma", "setting": "[1]", "value": "undetectable"},
      {"measurement": "detection in the blood", "setting": "[2]", "value": "could not be found and not"}
    ]},
    {"compound": "Oc1ccc(/C=C/c2cc(O)cc(O)c2)cc1", "note": "[resveratrol, Resveratrol]", "values": [
      {"measurement": "activation of ER-α", "setting": "ERα", "value": "no significant effects; also recorded: no activation"}
    ]},
    {"compound": "Oc1cc(O)cc(/C=C/c2ccc(O)c(O)c2)c1", "note": "[piceatannol, Piceatannol (astringenin)]", "values": [
      {"measurement": "activation of ERβ", "setting": "ERβ", "value": "activate relatively specifically only the ERβ"},
      {"measurement": "activation of ER-α", "setting": "ERα", "value": "no significant effects; also recorded: no activation"}
    ]},
    {"compound": "COc1ccc(C=Cc2cc(O)cc(O[C@@H]3O[C@H](CO)[C@@H](O)[C@H](O)[C@H]3O)c2)cc1O", "note": "[rhaponticin, 3,3′,5-Trihydroxy-4′-methoxystilbene 3-O-β-D-glucopyranoside]", "values": [
      {"measurement": "solubility in aqueous solutions with an alkaline pH range", "setting": "Solubility statements; alkaline pH", "value": "readily soluble"},
      {"measurement": "behaviour in the acidic pH range", "setting": "Solubility statements; pH 3.4-3.6", "value": "precipitated"},
      {"measurement": "content found in solution", "setting": "[3]; [4]", "value": 55.1, "unit": "% rhaponticin"},
      {"measurement": "dissolved, of theory", "setting": "[3]; [4]", "value": "(89.0% of theory)"},
      {"measurement": "content found in solution", "setting": "[3]; [5]", "value": 52.2, "unit": "% rhaponticin"},
      {"measurement": "dissolved, of theory", "setting": "[3]; [5]", "value": "(84.3% of theory)"},
      {"measurement": "content found in solution", "setting": "[3]; [6]", "value": 58.8, "unit": "% rhaponticin"},
      {"measurement": "dissolved, of theory", "setting": "[3]; [6]", "value": "(95.0% of theory)"},
      {"measurement": "content found in solution", "setting": "[3]; [7]", "value": 59.8, "unit": "% rhaponticin"},
      {"measurement": "dissolved, of theory", "setting": "[3]; [7]", "value": "(96.6% of theory)"},
      {"measurement": "detection / accumulation (AUC 0-24 h) in dog plasma", "setting": "[1]", "value": "dose-dependent accumulation"},
      {"measurement": "time of maximum in the blood", "setting": "[2]; oral 40 mg ERr 731", "value": "3 to 4", "unit": "h"},
      {"measurement": "detection in the blood", "setting": "[2]", "value": "detected; also recorded: detectable"}
    ]},
    {"compound": "COc1ccc(/C=C/c2cc(O)cc(O[C@@H]3O[C@H](CO)[C@@H](O)[C@H](O)[C@H]3O)c2)cc1", "note": "[deoxyrhaponticin, 3,5′-Dihydroxy-4′-methoxystilbene 3-O-β-D-glucopyranoside]", "values": [
      {"measurement": "content found in solution", "setting": "[3]; [4]", "value": 27.1, "unit": "% deoxyrhaponticin"},
      {"measurement": "dissolved, of theory", "setting": "[3]; [4]", "value": "(90.6% of theory)"},
      {"measurement": "content found in solution", "setting": "[3]; [5]", "value": 25.2, "unit": "% deoxyrhaponticin"},
      {"measurement": "dissolved, of theory", "setting": "[3]; [5]", "value": "(84.2% of theory)"},
      {"measurement": "content found in solution", "setting": "[3]; [6]", "value": 29.0, "unit": "% deoxyrhaponticin"},
      {"measurement": "dissolved, of theory", "setting": "[3]; [6]", "value": "(97.0% of theory)"},
      {"measurement": "content found in solution", "setting": "[3]; [7]", "value": 29.5, "unit": "% deoxyrhaponticin"},
      {"measurement": "dissolved, of theory", "setting": "[3]; [7]", "value": "(98.7% of theory)"},
      {"measurement": "detection / accumulation (AUC 0-24 h) in dog plasma", "setting": "[1]", "value": "dose-dependent accumulation"}
    ]}
  ]
}
